Measurements as given in patent publication US20230293525A1, “METHODS AND COMPOSITIONS FOR THE TREATMENT OF VIRAL INFECTIONS” (priority 2020, published 2023).

Tested on: minor spliceosome snRNAs including U11, U12, U6atac, and U4atac
Assay: qPCR of minor spliceosome snRNAs in HEK 293 cells treated with Tenovin 1
Format: cell-based
Settings: 10 μM, incubated 24 hours, qPCR normalized to RN7SK, versus DMSO

## CC(=O)Nc1ccc(NC(=S)NC(=O)c2ccc(C(C)(C)C)cc2)cc1 [Tenovin 1]
  levels of minor spliceosome snRNAs U11, U12, U6atac and U4atac (qPCR): successfully downregulates
